In brackets after ≈: the same amount, converted by molar mass. Numbered stars: 1 amine (or outer) side, 2 acyl side, 3 side chain; on linkers, the order of the positions; unused ones are H or OH. Bridge positions count the residues as written; N and C are the ends. Square brackets hold non-standard residues; d marks the D form. Peptide text beside a SMILES is read from it. ξ: configuration not given here. ξαMeNle(6-ylidene) = CC(CCCC=[*:3])(N[*:1])C(=O)[*:2]; S5 = C=CCCC[C@](C)(N)C(=O)O
How the values were obtained:
Staphylococcus aureus = assay: Antibacterial activity against Staphylococcus aureus ATCC 25923 assessed as inhibition of bacterial growth measured after 24 hrs by broth microdilution method; assay type: functional
Klebsiella pneumoniae [1] = assay: Antibacterial activity against Carbapenem-resistant Klebsiella pneumoniae assessed as inhibition of bacterial growth measured after 24 hrs by broth microdilution method; assay type: functional
Pseudomonas aeruginosa [2] = assay: Antibacterial activity against Carbapenem-resistant Pseudomonas aeruginosa assessed as inhibition of bacterial growth measured after 24 hrs by broth microdilution method; assay type: functional
Acinetobacter baumannii = assay: Antibacterial activity against Pandrug-resistant Acinetobacter baumannii assessed as inhibition of bacterial growth measured after 24 hrs by broth microdilution method; assay type: functional
Shigella flexneri = assay: Antibacterial activity against Shigella flexneri 301 assessed as inhibition of bacterial growth measured after 24 hrs by broth microdilution method; assay type: functional
Salmonella typhimurium = assay: Antibacterial activity against Salmonella typhimurium assessed as inhibition of bacterial growth measured after 24 hrs by broth microdilution method; assay type: functional, Salmonella enterica subsp. enterica serovar Typhimurium; conditions: Salmonella enterica
Klebsiella pneumoniae [3] = assay: Antibacterial activity against Klebsiella pneumoniae ATCC 13883 assessed as inhibition of bacterial growth measured after 24 hrs by broth microdilution method; assay type: functional
Pseudomonas aeruginosa [4] = assay: Antibacterial activity against Pandrug-resistant Pseudomonas aeruginosa assessed as inhibition of bacterial growth measured after 24 hrs by broth microdilution method; assay type: functional
Pseudomonas aeruginosa [5] = assay: Antibacterial activity against Pseudomonas aeruginosa PAO1 assessed as inhibition of bacterial growth measured after 24 hrs by broth microdilution method; assay type: functional
[6] = Hemolytic activity in human RBC assessed as hemolysis incubated for 1 hr by microplate reader; assay type: toxicity, cell-based, Erythrocyte; conditions: erythrocyte, 1 h

| Structure (SMILES) | MIC (Staphylococcus aureus) [µM] | MIC (Klebsiella pneumoniae [1]) [µM] | MIC (Pseudomonas aeruginosa [2]) [µM] | MIC (Acinetobacter baumannii) [µM] | MIC (Shigella flexneri) [µM] | MIC (Salmonella typhimurium) [µM] | MIC (Klebsiella pneumoniae [3]) [µM] | MIC (Pseudomonas aeruginosa [4]) [µM] | MIC (Pseudomonas aeruginosa [5]) [µM] | Activity [6] |
| --- | --- | --- | --- | --- | --- | --- | --- | --- | --- | --- |
| CC[C@H](C)[C@H](NC(=O)CNC(=O)[C@H](CC(=O)O)NC(=O)[C@H](CCCNC(=N)N)NC(=O)[C@@H](NC(=O)[C@H](CC(N)=O)NC(=O)[C@H](CCC(N)=O)NC(=O)CNC(=O)[C@@H](NC(=O)[C@H](CCCCN)NC(=O)[C@H](CCC(=O)O)NC(=O)[C@@H](NC(=O)[C@H](CCCCN)NC(=O)[C@H](CCCCN)NC(=O)[C@H](Cc1ccccc1)NC(=O)[C@H](CC(C)C)NC(=O)[C@H](CCCCN)NC(=O)[C@H](Cc1c[nH]c2ccccc12)NC(=O)[C@H](CCCCN)NC(C)=O)[C@@H](C)CC)C(C)C)[C@@H](C)CC)C(=O)N[C@H](C(=O)N[C@@H](CCCCN)C(=O)N[C@@H](C)C(=O)NCC(=O)N1CCC[C@H]1C(=O)N[C@@H](C)C(=O)N[C@H](C(=O)N[C@@H](C)C(=O)N[C@H](C(=O)N[C@H](C(=O)NCC(=O)N[C@@H](CCC(N)=O)C(=O)N[C@@]1(C)CCC/C=C/CCC[C@@](C)(C(=O)N[C@@H](CCCCN)C(N)=O)NC(=O)[C@H]([C@@H](C)CC)NC(=O)[C@H](CCC(N)=O)NC(=O)[C@H]([C@@H](C)O)NC1=O)C(C)C)C(C)C)C(C)C)[C@@H](C)CC (Ac-KWKLFKKIEKVGQNIRDGIIKAGPAVAVVGQ[S5]TQI[S5]K-NH2; staple (E) 32-36) | 1.56 (≈ 6.48 µg/mL) | 3.13 (≈ 13 µg/mL) | > 100 | < 0.78 | < 0.78 | 3.13 (≈ 13 µg/mL) | 3.13 (≈ 13 µg/mL) | 25 (≈ 104 µg/mL) | 6.25 (≈ 26 µg/mL) |  |
| CC[C@H](C)[C@H](NC(=O)CNC(=O)[C@H](CC(=O)O)NC(=O)[C@H](CCCNC(=N)N)NC(=O)[C@@H](NC(=O)[C@H](CC(N)=O)NC(=O)[C@H](CCC(N)=O)NC(=O)CNC(=O)[C@@H](NC(=O)[C@H](CCCCN)NC(=O)[C@H](CCC(=O)O)NC(=O)[C@@H](NC(=O)[C@H](CCCCN)NC(=O)[C@H](CCCCN)NC(=O)[C@H](Cc1ccccc1)NC(=O)[C@H](CC(C)C)NC(=O)[C@H](CCCCN)NC(=O)[C@H](Cc1c[nH]c2ccccc12)NC(=O)[C@H](CCCCN)NC(C)=O)[C@@H](C)CC)C(C)C)[C@@H](C)CC)C(=O)N[C@H](C(=O)N[C@@H](CCCCN)C(=O)N[C@@H](C)C(=O)NCC(=O)N1CCC[C@H]1C(=O)N[C@@H](C)C(=O)N[C@H](C(=O)N[C@@H](C)C(=O)N[C@H](C(=O)N[C@H](C(=O)NC1(C)CCC/C=C\CCC[C@@](C)(C(=O)N[C@H](C(=O)N[C@@H](C)C(=O)N[C@@H](CCCCN)C(N)=O)[C@@H](C)CC)NC(=O)[C@H]([C@@H](C)O)NC(=O)[C@H](C)NC(=O)[C@H](CCC(N)=O)NC1=O)C(C)C)C(C)C)C(C)C)[C@@H](C)CC (stereo partly specified) (Ac-KWKLFKKIEKVGQNIRDGIIKAGPAVAVV[ξαMeNle(6-ylidene)]QAT[S5]IAK-NH2; staple (Z) 30-34) | 3.13 (≈ 12.9 µg/mL) |  |  |  |  |  | 6.25 (≈ 25.7 µg/mL) |  | 6.25 (≈ 25.7 µg/mL) | Non-toxic |
| CC[C@H](C)[C@H](NC(=O)CNC(=O)[C@H](CC(=O)O)NC(=O)[C@H](CCCNC(=N)N)NC(=O)[C@@H](NC(=O)[C@H](CC(N)=O)NC(=O)[C@H](CCC(N)=O)NC(=O)CNC(=O)[C@@H](NC(=O)[C@H](CCCCN)NC(=O)[C@H](CCC(=O)O)NC(=O)[C@@H](NC(=O)[C@H](CCCCN)NC(=O)[C@H](CCCCN)NC(=O)[C@H](Cc1ccccc1)NC(=O)[C@H](CC(C)C)NC(=O)[C@H](CCCCN)NC(=O)[C@H](Cc1c[nH]c2ccccc12)NC(=O)[C@H](CCCCN)NC(C)=O)[C@@H](C)CC)C(C)C)[C@@H](C)CC)C(=O)N[C@H](C(=O)N[C@@H](CCCCN)C(=O)N[C@@H](C)C(=O)NCC(=O)N1CCC[C@H]1C(=O)N[C@@H](C)C(=O)N[C@H](C(=O)N[C@@H](C)C(=O)N[C@H](C(=O)N[C@@]1(C)CCC/C=C\CCC[C@@](C)(C(=O)N[C@@H](CCC(N)=O)C(=O)N[C@H](C(=O)N[C@@H](C)C(=O)N[C@@H](CCCCN)C(N)=O)[C@@H](C)CC)NC(=O)[C@H](C)NC(=O)[C@H](CCC(N)=O)NC(=O)CNC1=O)C(C)C)C(C)C)[C@@H](C)CC (Ac-KWKLFKKIEKVGQNIRDGIIKAGPAVAV[S5]GQA[S5]QIAK-NH2; staple (Z) 29-33) | 1.56 (≈ 6.39 µg/mL) | 3.13 (≈ 12.8 µg/mL) | > 100 | < 0.78 | < 0.78 | 1.5 (≈ 6.14 µg/mL) | 1.56 (≈ 6.39 µg/mL) | 25 (≈ 102 µg/mL) | 6.25 (≈ 25.6 µg/mL) |  |
| CC[C@H](C)[C@H](NC(=O)CNC(=O)[C@H](CC(=O)O)NC(=O)[C@H](CCCNC(=N)N)NC(=O)[C@@H](NC(=O)[C@H](CC(N)=O)NC(=O)[C@H](CCC(N)=O)NC(=O)CNC(=O)[C@@H](NC(=O)[C@H](CCCCN)NC(=O)[C@H](CCC(=O)O)NC(=O)[C@@H](NC(=O)[C@H](CCCCN)NC(=O)[C@H](CCCCN)NC(=O)[C@H](Cc1ccccc1)NC(=O)[C@H](CC(C)C)NC(=O)[C@H](CCCCN)NC(=O)[C@H](Cc1c[nH]c2ccccc12)NC(=O)[C@H](CCCCN)NC(C)=O)[C@@H](C)CC)C(C)C)[C@@H](C)CC)C(=O)N[C@H](C(=O)N[C@@H](CCCCN)C(=O)N[C@@H](C)C(=O)NCC(=O)N1CCC[C@H]1C(=O)N[C@@H](C)C(=O)N[C@H](C(=O)N[C@@H](C)C(=O)N[C@@]1(C)CCC/C=C\CCC[C@@](C)(C(=O)N[C@H](C(=O)N[C@@H](CCC(N)=O)C(=O)N[C@H](C(=O)N[C@@H](C)C(=O)N[C@@H](CCCCN)C(N)=O)[C@@H](C)CC)[C@@H](C)O)NC(=O)[C@H](CCC(N)=O)NC(=O)CNC(=O)[C@H](C(C)C)NC1=O)C(C)C)[C@@H](C)CC (Ac-KWKLFKKIEKVGQNIRDGIIKAGPAVA[S5]VGQ[S5]TQIAK-NH2; staple (Z) 28-32) | 3.13 (≈ 12.9 µg/mL) | 6.25 (≈ 25.8 µg/mL) | > 100 | < 0.78 | 1.56 (≈ 6.44 µg/mL) | 6.25 (≈ 25.8 µg/mL) | 3.13 (≈ 12.9 µg/mL) | 25 (≈ 103 µg/mL) | 6.25 (≈ 25.8 µg/mL) |  |
| CC[C@H](C)[C@H](NC(=O)CNC(=O)[C@H](CC(=O)O)NC(=O)[C@H](CCCNC(=N)N)NC(=O)[C@@H](NC(=O)[C@H](CC(N)=O)NC(=O)[C@H](CCC(N)=O)NC(=O)CNC(=O)[C@@H](NC(=O)[C@H](CCCCN)NC(=O)[C@H](CCC(=O)O)NC(=O)[C@@H](NC(=O)[C@H](CCCCN)NC(=O)[C@H](CCCCN)NC(=O)[C@H](Cc1ccccc1)NC(=O)[C@H](CC(C)C)NC(=O)[C@H](CCCCN)NC(=O)[C@H](Cc1c[nH]c2ccccc12)NC(=O)[C@H](CCCCN)NC(C)=O)[C@@H](C)CC)C(C)C)[C@@H](C)CC)C(=O)N[C@H](C(=O)N[C@@H](CCCCN)C(=O)N[C@@H](C)C(=O)NCC(=O)N1CCC[C@H]1C(=O)N[C@@H](C)C(=O)N[C@@]1(C)CCC/C=C\CCC[C@@](C)(C(=O)N[C@@H](CCC(N)=O)C(=O)N[C@@H](C)C(=O)N[C@H](C(=O)N[C@@H](CCC(N)=O)C(=O)N[C@H](C(=O)N[C@@H](C)C(=O)N[C@@H](CCCCN)C(N)=O)[C@@H](C)CC)[C@@H](C)O)NC(=O)[C@H](C(C)C)NC(=O)[C@H](C(C)C)NC(=O)[C@H](C)NC1=O)[C@@H](C)CC (Ac-KWKLFKKIEKVGQNIRDGIIKAGPA[S5]AVV[S5]QATQIAK-NH2; staple (Z) 26-30) | 3.13 (≈ 13 µg/mL) | 12.5 (≈ 51.8 µg/mL) | > 100 | < 0.78 | 1.56 (≈ 6.46 µg/mL) | 6.25 (≈ 25.9 µg/mL) | 3.13 (≈ 13 µg/mL) | 25 (≈ 104 µg/mL) | 6.25 (≈ 25.9 µg/mL) | Non-toxic |
| CC[C@H](C)[C@H](NC(=O)CNC(=O)[C@H](CC(=O)O)NC(=O)[C@H](CCCNC(=N)N)NC(=O)[C@@H](NC(=O)[C@H](CC(N)=O)NC(=O)[C@H](CCC(N)=O)NC(=O)CNC(=O)[C@@H](NC(=O)[C@H](CCCCN)NC(=O)[C@H](CCC(=O)O)NC(=O)[C@@H](NC(=O)[C@H](CCCCN)NC(=O)[C@H](CCCCN)NC(=O)[C@H](Cc1ccccc1)NC(=O)[C@H](CC(C)C)NC(=O)[C@H](CCCCN)NC(=O)[C@H](Cc1c[nH]c2ccccc12)NC(=O)[C@H](CCCCN)NC(C)=O)[C@@H](C)CC)C(C)C)[C@@H](C)CC)C(=O)N[C@H](C(=O)N[C@@H](CCCCN)C(=O)N[C@@H](C)C(=O)NCC(=O)N1CCC[C@H]1C(=O)N[C@@]1(C)CCC/C=C\CCC[C@@](C)(C(=O)NCC(=O)N[C@@H](CCC(N)=O)C(=O)N[C@@H](C)C(=O)N[C@H](C(=O)N[C@@H](CCC(N)=O)C(=O)N[C@H](C(=O)N[C@@H](C)C(=O)N[C@@H](CCCCN)C(N)=O)[C@@H](C)CC)[C@@H](C)O)NC(=O)[C@H](C(C)C)NC(=O)[C@H](C)NC(=O)[C@H](C(C)C)NC1=O)[C@@H](C)CC (Ac-KWKLFKKIEKVGQNIRDGIIKAGP[S5]VAV[S5]GQATQIAK-NH2; staple (Z) 25-29) | 3.13 (≈ 12.9 µg/mL) | 6.25 (≈ 25.8 µg/mL) | > 100 | < 0.78 | 1.56 (≈ 6.44 µg/mL) | 3.13 (≈ 12.9 µg/mL) | 3.13 (≈ 12.9 µg/mL) | 25 (≈ 103 µg/mL) | 6.25 (≈ 25.8 µg/mL) | Non-toxic |
